Reference: publication PMC8597786 (Antimicrobial Agents and Chemotherapy, 2021)
Where “and” joins values, the source holds several entries; their conditions need not be identical. Equal entries are not always repeated. Where two headings read alike, the source gives them in different places.

Legend:
[1] = biological target: T1, SARS-CoV-2 spike RBD/ACE2 (Severe acute respiratory syndrome coronavirus 2, UniProt P0DTC2); test: biochemical; assay type: binding, SARS-CoV-2 (USA-WA1/2020)
T1 construct: a SARS-CoV-2 RBD protein derived from USA-WA1/2020 and containing a C-terminal His tag; a full-length ACE2 peptide with a C-terminal Fc tag; purchased Sino Biological

[2] = system: Vero-E6 cells; test: Resazurin cell viability assay in uninfected cells; assay type: cell-based
Method: (§1) A total of 20,000 Vero-E6 cells were plated in 96-well plates and incubated overnight before addition of compounds at defined concentrations; 0.1% DMSO vehicle control was added to wells in the absence of test compounds. All experimental conditions were performed in duplicate. Cells were then incubated at 37°C and 5% CO2 for 4 days before addition of resazurin (Sigma-Aldrich) to a final concentration of 20 μg/ml. Cells were incubated for an additional 4 h before fluorescence intensity was measured using a ClarioStar plate reader (BMG Labtech). Background fluorescence was subtracted from wells containing resazurin and D10+ medium but no cells.

[3] = biological target: T2, PD-1/PD-L1 (Homo sapiens, UniProt Q9NZQ7); test: PD-1/PD-L1 AlphaScreen interaction assay; assay type: binding
T2 construct: purchased Sino Biological
T2 sequence (Q9NZQ7 19-239 limits assumed): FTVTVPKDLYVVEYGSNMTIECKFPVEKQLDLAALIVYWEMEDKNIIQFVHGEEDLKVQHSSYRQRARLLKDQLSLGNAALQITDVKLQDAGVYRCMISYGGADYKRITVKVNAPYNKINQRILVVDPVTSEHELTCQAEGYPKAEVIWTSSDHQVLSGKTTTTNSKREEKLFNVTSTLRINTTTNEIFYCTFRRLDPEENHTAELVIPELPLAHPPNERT
Method: PD-1 binding to PD-L1 was also determined using AlphaScreen technology. […] Next, 5 μl of PD-L1-Fc/protein A acceptor beads was added first to the plate, followed by 100 nl of test compound prepared as described above, followed by 5 μl of PD-1-His/nickel chelate donor beads. For each experiment, all conditions were performed in duplicate. Following 2 h of incubation at room temperature, data were collected as described above and normalized to percentage inhibition, where 100% equaled the AlphaScreen signal in the absence of PD-1-His, and 0% equaled the AlphaScreen signal in the presence of both proteins and 0.1% DMSO alone.

[4] = biological target: T3, SARS-CoV-2 M^pro (Severe acute respiratory syndrome coronavirus 2, UniProt P0DTD1); test: M^pro enzymatic assay (FRET fluorogenic peptide substrate); assay type: biochemical
T3 construct: QHD43415.1; amino acids [aa]; 3264 to 3567; HIS-SUMO (N, cleaved yes); made in house; host or cells: E. coli BL21(DE3)

[5] = system: VSVΔG-S-GFP pseudovirus containing SARS-CoV-2 spike from B.1.1.7; assay type: cell-based, SARS-CoV-2 B.1.1.7; conditions: for % GFP+ nuclei, Average: 50 μM; for Infected cells at 50 μM (%), VSVΔG-S-GFP pseudovirus B.1.1.7: 24 h
[6] = system: VSVΔG-S-GFP pseudovirus containing SARS-CoV-2 spike from B.1.351; assay type: cell-based, SARS-CoV-2 B.1.351; conditions: for % GFP+ nuclei, Average: 50 μM; for Infected cells at 50 μM (%), VSVΔG-S-GFP pseudovirus B.1.351: 24 h
[7] = Resazurin cell viability assay in uninfected cells; assay type: cell-based; conditions: African green monkey, uninfected Vero-E6 cells, resazurin, 4 days
Method: as §1

[8] = system: VSVΔG-S-GFP pseudovirus containing SARS-CoV-2 spike (USA-WA1/2020)
[9] = 200 mg/kg; cited from earlier work
[10] = 200 mg/kg; cited from earlier work; remark: listed apart in the source
[11] = 100 mg/kg; cited from earlier work
[12] = system: SARS-CoV-2 (BetaCov isolate); conditions: supernatant viral RNA by quantitative PCR after 48 h, read-out: EC50 in SARS-CoV-2-infected Vero-E6 cells; cited from earlier work
[13] = system: RBD with ACE2; conditions: read-out: IC50, inhibition of binding of RBD with ACE2; cited from earlier work
[14] = system: SARS-CoV-2; conditions: read-out: EC50, SARS-CoV-2 replication; cited from earlier work
[15] = read-out: IC50 for Spike/ACE2 AlphaScreen

Molecule | IC50 [1] [µM] | Selectivity index [1] | IC50 [3] [µM] | IC50 [4] [µM] | % GFP+ nuclei, Average [5] [%] | Infected cells at 50 μM (%), VSVΔG-S-GFP pseudovirus B.1.1.7 [5] | % GFP+ nuclei, Average [6] [%] | Infected cells at 50 μM (%), VSVΔG-S-GFP pseudovirus B.1.351 [6] | CC50 at 4 days [7] [µM] | % GFP+ nuclei, Average ([8]; 50 μM) [%] | Infected cells at 50 μM (%), VSVΔG-S-GFP pseudovirus WA1/2020 ([8]; 24 h) | further results
Cc1c(COc2cc(OCc3cccc(C#N)c3)c(CN3C[C@H](O)C[C@@H]3C(=O)O)cc2Cl)cccc1-c1ccc2c(c1)OCCO2 [BMS-1166, reference compound] | – | – | – | – | – | – | – | – | – | – | – | IC50 [1, 15]: > 100 µM
CC(C)C[C@H](NC(=O)OCc1ccccc1)C(=O)N[C@@H](CC1CCNC1=O)C(O)S(=O)(=O)O (stereo partly shown) [GC-376, reference compound] | – | – | – | – | – | – | – | – | – | – | – | CC50 ([2]; resazurin, 4 days): > 10 µM
Oc1ccc([C@@H]2c3c(O)cc(O)cc3[C@@H]3c4c(cc(O)cc4[C@H]2[C@@H]2c4cc(O)cc5c4[C@@H](c4cc(O)cc(O)c4[C@H]2c2ccc(O)cc2)[C@H](c2ccc(O)cc2)O5)O[C@H]3c2ccc(O)cc2)cc1 [Hopeaphenol, (–)-hopeaphenol] | 0.11 | 257.3 | 28.3 | 42.5 | 1.83 | 34.1 ± 13.6% and 34.1% | 0.93 | 20.4 ± 2.4% and 20.4% | > 100 | 0.69 | 28.2 ± 1.2% and 28.2% | Plasma triglyceride elevation in olive oil-treated mice [9]: inhibit plasma triglyceride elevation; Plasma glucose in sucrose-loaded mice [10]: reduce plasma glucose; Effect against LPS-induced liver injury in mice [11]: hepatoprotective effects
CCC(CC)COC(=O)[C@H](C)N[P@](=O)(OC[C@H]1O[C@@](C#N)(c2ccc3c(N)ncnn23)[C@H](O)[C@@H]1O)Oc1ccccc1 [Remdesivir, remdesivir, reference compound] | – | – | – | – | – | – | – | – | > 10 | – | – | –
Oc1ccc(/C=C/c2cc(O)cc(O)c2)cc1 [Resveratrol, resveratrol, reference compound] | > 100 | – | – | – | – | – | – | – | ~100 | 2.36 | 96.3 ± 14.7% and 96.3% | Total cell nuclei, % of nuclei observed in untreated, infected cells ([8]; 50 μM, 24 h): 60.3 ± 7.0%; EC50 [12]: 10.7 µM
OC[C@H]1O[C@@H](Oc2cc3c4c(c2)[C@@H]([C@@H]2c5cc(O)cc6c5[C@@H](c5cc(O)cc(O)c5[C@H]2c2ccc(O)cc2)[C@H](c2ccc(O)cc2)O6)[C@H](c2ccc(O)cc2)c2c(O)cc(O)cc2[C@H]4[C@H](c2ccc(O)cc2)O3)[C@H](O)[C@@H](O)[C@@H]1O [Vatalbinoside A, vatalbinoside A] | 0.24 | 92.9 | 22.3 | 68.7 | 2.35 | 43.8 ± 3.4% and 43.8% | 1.87 | 41.1 ± 2.6% and 41.1% | > 100 | 0.99 | 40.4 ± 16.7% and 40.4% | –
Oc1ccc([C@@H]2c3c(O)cc(O)cc3[C@@H]3c4c(cc(O)c5c4[C@@H]2[C@H](c2ccc(O)cc2)[C@H]5c2cc(O)cc4c2[C@@H](c2cc(O)cc(O)c2)[C@H](c2ccc(O)cc2)O4)O[C@H]3c2ccc(O)cc2)cc1 [Vaticanol B, vaticanol B] | 0.067 | 247.8 | 16.6 | 47.6 | 2.02 | 37.7 ± 4.1% and 37.7% | 3.29 | 72.3 ± 7.3% and 72.3% | > 100 | 2.05 | 83.7 ± 4.9% and 83.7% | –
Oc1ccc([C@H]2Oc3cc(O)cc([C@@H]4[C@H](c5cc(O)cc(O)c5)[C@@H](c5ccc(O)cc5)O[C@H]4c4ccc(O)cc4)c3[C@@H]2c2cc(O)c3c(c2)[C@@H](c2cc(O)cc(O)c2)[C@H](c2ccc(O)cc2)O3)cc1 [kobophenol A] | – | – | – | – | – | – | – | – | – | – | – | IC50 [13]: 1.8 µM; EC50 [14]: 71.6 µM
REGN10933 | – | – | – | – | – | – | – | – | – | – | – | IC50 [1, 15]: 0.00018 µM; Cytotoxicity by resazurin staining ([2]; 4 days of treatment): no evidence of cytotoxicity
